{"source": "patent US12648952B2", "about": "“Methods of treatment using ICAM-modulating agents” (AVM Biotechnology, LLC, priority 2020, dated 2026)", "key": {"[1]": {"system": "splenocytes", "experiment": "Ex vivo splenocyte viability by flow cytometry (Study 24)", "format": "cell-based, mouse", "procedure": "Splenocytes were cultured for 16 hours prior to assay execution."}, "[2]": {"system": "whole blood", "experiment": "Ex vivo whole blood incubation, immune cell numbers (Study 6)", "format": "cell-based, mouse or human", "procedure": "The profound in vivo activity that is observed in naïve mice and in cancer models must therefore be mediated through the mobilized supercharged Natural Killer T cells, T cells and dendritic cells after AVM0703 HED 6 mg/kg and higher."}, "[3]": {"system": "whole blood", "experiment": "Ex vivo glucocorticoid comparison, whole blood CBC analysis", "format": "cell-based", "settings": "overnight, room temperature"}, "[4]": {"system": "lymphocytes, monocytes, NKT cells, T cells, dendritic cells", "experiment": "In vivo immune cell mobilisation and ablation after high dose glucocorticoid", "parameters": "species or system mice", "settings": "HED 15 mg/kg and higher", "source_text": "High doses of glucocorticoid exert powerful biological effects that will contribute to the treatment of lymphocyte-mediated diseases and cancers, as well as microbial diseases. […] This cell type is discussed in greater detail below.\nCD4CD8 double positivity on CD3 T lymphocytes indicates a cytotoxic T cell. […] In vivo only lymphocytes, monocytes, some neutrophils and cancer cells have been ablated.\nAVM_NKT cells are NKp46+ and Ly6G positive, indicating the potential to directly kill targets as well as to engulf them. The typical AVM_NKT summarized above are not CD1d restricted. […] In vivo, glucocorticoids ablate lymphocytes other than NK and NKT cells, and monocytes, within 6 hours after oral dosing of naïve mice. In tumor models the novel NKT and T cell are not observed in the blood. However, within 48 hours of dosing NKp46+ cells and Ly6G+ cells, which are not macrophages as they are negative for F4/80, can be found in formations within the tumors, surrounding regions of remaining viable tumor. This indicates the functional potency of these cells. In the tumor setting, the AVM novel immune cells are not observed in the blood. They appear to preferentially home to the abnormal cells, in this case cancer cells, and circulating normal monocytes and neutrophils are not depleted as they are in the naïve setting."}, "[5]": {"settings": "cited from earlier work"}, "[6]": {"settings": "ex vivo or in vitro concentrations equal to peak blood concentrations of HED 7-15 mg/kg or greater"}}}
{"smiles": "C[C@@H]1C[C@H]2[C@@H]3CCC4=CC(=O)C=C[C@]4(C)[C@@]3(F)[C@@H](O)C[C@]2(C)[C@@]1(O)C(=O)CO", "note": "[dexamethasone base]", "values": [{"measurement": "response of isolated splenocytes", "setting": "[1]; 100 uM up to 500 uM", "result": "no response"}, {"measurement": "concentrations that do not trigger splenocyte cell death", "setting": "[1]; after 4 hours", "result": "above 100 μM"}, {"measurement": "concentrations with direct killing activity on splenocytes", "setting": "[1]; after 4 hours", "result": "lower than 100"}, {"measurement": "response of ex vivo whole blood", "setting": "[2]; 100 uM up to 500 uM", "result": "no response"}, {"measurement": "numbers of lymphocytes, monocytes, eosinophils, basophils in whole blood", "setting": "[2]; 500 μM dexamethasone base or 50 RU486, 16 hr, room temperature", "result": "no change in numbers"}, {"measurement": "lymphocyte-killing activity in whole blood", "setting": "[2]; 500 μM dexamethasone base or 50 RU486 alone", "result": "does not induce the lymphocyte-killing activity seen in in vivo experiments"}]}
{"smiles": "C[C@@H]1C[C@H]2[C@@H]3CCC4=CC(=O)C=C[C@]4(C)[C@@]3(F)[C@@H](O)C[C@]2(C)[C@@]1(O)C(=O)COP(=O)(O)O", "note": "[dexamethasone phosphate]", "values": [{"measurement": "differences between dexamethasone formulations in ex vivo CBC analysis", "setting": "[3]", "result": "no noticeable differences"}, {"measurement": "direct apoptotic effect on splenocytes", "setting": "[1]; [6]", "result": "no direct apoptotic effect"}, {"measurement": "in vivo effects on colon, pancreas or bone", "setting": "[4]", "result": "no effects on colon, pancreas or bone"}, {"measurement": "induction of CD3-very-high T cells and CD11b-very-high dendritic cells", "setting": "[4]", "result": "CD11b-very-high dendritic cells are also induced"}, {"measurement": "direct apoptotic effect on whole blood", "setting": "[2]; [6]", "result": "no direct apoptotic effect"}]}
{"smiles": "C[C@]12C=CC(=O)C=C1CC[C@@H]1[C@@H]2C(=O)C[C@@]2(C)[C@H]1CC[C@]2(O)C(=O)CO", "note": "[prednisone]", "values": [{"measurement": "biologic half-life", "setting": "[5]", "result": "about 20 hours"}]}
